Measured values: patent publication US4565805A, “Pharmaceutical preparation for the treatment of peptic ulcer” (priority 1984, dated 1986)
Where two headings read alike, the source gives them in different places.

Tests used:
[1] = system: patients suffering from duodenal peptic ulcer
Description: The preparation was tested in clinic on 40 patients suffering from duodenal peptic ulcer. The control groups consisted of 20 patients treated with cymethidin in the daily dose of 800 mg. Only male patients were subjected to the treatment, their age varied from 22 to 56 years. The duration of the disease was different: from newly detected ulcer to 28 years of the disease. The diagnosis of the peptic ulcer was made on the basis of generally accepted clinical tests with an obligatory use of the gastroduodenoscopy. The gastroduodenoscopy was carried out prior to administration of the preparation and 14, 21 and 28 days thereafter (the two latter endoscopy were carried out only in the use of non-scarring ulcers).
The preparation was administered intramuscularly in a dose of 10-15 μg/kg in a 0.9% aqueous solution of sodium chloride twice a day (in the moring at 7 a.m. and in the evening at 19 p.m.). The treatment course was 14-28 days, the course dose of the preparation was 30-60 mg. Apart from the preparation, the patients were given no additional pharmaceuticals, antacids were also excluded.

[2] = system: experimental duodenal ulcers (cystamine) in rats; settings: preparation 12 μg/kg twice a day, cymethidin 7 mg/kg a day
Description: 170 rats were used. […] The animals of the control group were injected with a physiological solution. The slaughter of the animals was effected in groups of 10 animals within different periods after the beginning of the experiment.

For `CN/C(=N\CCSCc1nc[nH]c1C)NC#N` [cymethidin], the “patients with pains still noted” value ([1]; by the end of the 2-nd week, cymethidin 800 mg daily) was 35%, the “patients with healed ulcer” value ([1]; by the end of the 3-rd week, preparation 10-15 μg/kg i.m. twice a day, cymethidin 200 mg 4 times a day) was 65% and the ulcer index ([2]; 24 hrs, control 3.1) was 1.6. It also gave a ulcer index ([2]; 48 hrs, control 3.3) of 1.6, a ulcer index ([2]; 72 hrs, control 3.2) of 1.5 and a ulcer index ([2]; 7 ds, control 1.8) of 0.8. For the same molecule, the ulcer index ([2]; 14 ds, control 1.2) was 0 and the “time of complete healing of ulcers” value [2] was “by the end of the second week”.
